# Results reported in US6528456B2, “Herbicidal 2-pyrazolyl-6-aryloxypyri(mi)dines” (BASF Aktiengesellschaft, priority 1999, dated 2003).
# System: Stellaria media
# Experiment: Post-emergence test
# Assay type: in vivo
# Conditions: 2-4 weeks after treatment
# Experimental: To evaluate their herbicidal activity, compounds according to the invention are tested using a representative range of plants: STEME Stellaria media [table] […] These acetone solutions are diluted with water and the resulting formulations applied at dosage levels equivalent of about 0.1 to 0. 4 kg per hectare of test compound per pot. After spraying the plants are placed on greenhouse benches and are cared for in the usual manner, commensurate with conventional greenhouse practices. From 2 to 4 weeks after treatment, the seedling plants are examined and rated according to the rating system provided above.
structure (smiles),measurement,setting,value
"Cc1cnc(-c2cc(C(F)(F)F)nn2C)nc1Oc1cc(C(F)(F)F)nn1C [Example 4, 2-(1-Methyl-3-trifluoromethylpyrazol-5-yl)-6-(1-methyl-3-trifluoromethylpyrazol-5-yloxy)-5-methylpyrimidine]",STEME herbicidal rating,0.1 kg/ha,5 (5 - Definite injury)
same,STEME herbicidal rating,0.4 kg/ha,6 (6 - Herbicidal effect)
